The text below walks through data of patent US20070092546A1, “Thiamin based insect repellant” (Violet Fire, LLC, priority 2005, published 2007).

Structures can show the parent of a compound that is named as a salt. Where two headings read alike, the source gives them in different places.

The conditions of data set [1]: cited from earlier work.
Data set [2] has as its system insects. The conditions noted are these: stated without test data. The text has this: Thiamin hydrochloride is soluble in water and glycerin and other polyhydric alcohols.
In data set [3] the test system is mosquitoes and other biting insects. The note with it: ingested doses of up to 100 mg/day for several weeks; cited from earlier work.
For data set [4] the following is noted: 100 mg/day consumed over a number of days; cited from earlier work.

Regarding `Cc1ncc(C[n+]2csc(CCO)c2C)c(N)n1` [Thiamin hydrochloride], the solubility result is “not readily soluble” in data set [1] (in organic solvents); “soluble” in data set [1] (in water and glycerin and other polyhydric alcohols). For the same molecule, the insect repellant properties entry in data set [2] was “have insect repellant properties”.

Regarding `Cc1ncc(C[n+]2csc(CCO)c2C)c(N)n1` [thiamin, Thiamin], the “insect repellency on the human skin” value in data set [3] is “will repel mosquitoes and other biting insects from the skin”. Moreover, the “adverse effects of ingestion” value in data set [4] is “can cause anaphylactic stock, allergic reactions and skin rashes”.

In the case of Thiamin mononitrate, in data set [2], the insect repellant properties entry is “have insect repellant properties”.
